For one experiment, the system named is Mouse C2C12 cells. As to the kind of experiment: Alkaline phosphatase (ALP) assay, cell based screen of JAB1 blockers with BMP-2. Particulars: cell based assay (FIG. 1-4). The procedure: Mouse C2C12 cells and Dulbecco's modified Eagle's medium (DMEM) were purchased from ATCC (Manassas, VA). The non-heat inactivated fetal bovine serum (FBS) was purchased from HyClone Laboratories, Inc. (Logan, UT). The C2C12 cells at passages 4 to 7 were subcultured in T-75 cm2 flasks in DMEM supplemented with 10% FBS at 37° C. in 5% CO2 with humidification. When the flasks reached 80% confluence, the cells were trypsinized and seeded in triplicate at 200,000 cells/well in a 6-well plate for quantitative real-time RT-PCR and alkaline phosphatase (ALP) assays or at 50,000 cells/well in a 12-well plate for the dual-luciferase reporter assay.
The C2C12 cells were plated at 200,000 cells/well in 6-well plates and grown overnight in DMEM containing 10% FBS. On day 2, the culture medium was replaced with DMEM containing 2% FBS and the cells were treated with various concentrations of the JAB1-interacting compound for 24 hours. On day 3, the medium was replaced with fresh DMEM containing 2% FBS and the cells were treated with 50 ng/ml of BMP-2 for 72 hours. The cells were washed with phosphate-buffered saline (PBS) and lysed by addition of lysis buffer (10 mM Tris-HCl pH 8.0, 1 mM MgCl2 and 0.5% Triton X-100). The cell lysates were centrifuged for 5 minutes at 13,000×g. The supernatant was removed and the aliquots were assayed for ALP activity and protein amount. The ALP activity was measured in triplicate using an ALP assay kit (Sigma-Aldrich, St. Louis, MO) in microtiter plates. The protein amount was determined with Bio-Rad protein assay reagent (Bio-Rad, Hercules, CA) using bovine serum albumin (BSA) as a standard. The ALP activity (nmoles of p-nitrophenol per ml) was normalized to the protein amount (nmoles of p-nitrophenol per μg).

The next experiment concerns Harlan athymic rats. As to the kind of experiment: Collagen disc implantation with Jab1-blockers and BMP-2 in rat ectopic model. Also on record: Average (Xray score): scale not given here. The following applies: 100 ul, chest implant, 4 weeks. It counts as in vivo. From the text: Harlan athymic rats about 5-6 weeks of age were chest implanted with a collagen disc and doses of G8 and R13 in combination with BMP-2. After 4 weeks the rats were sacrificed and evaluated for bone growth.

Setting [1] is: compound dose 2 mM + BMP-2 1.5 ug.
Where [2] appears, read: compound dose 4 mM + BMP-2 1.5 ug.
The mark [3] stands for this setting: compound dose 6 mM + BMP-2 1.5 ug.
Where [4] appears, read: compound dose 8 mM + BMP-2 1.5 ug.
Setting [5] is: compound dose 11 mM + BMP-2 1.5 ug.
The mark [6] stands for this setting: compound dose 15 mM + BMP-2 1.5 ug.
Setting [7] is: compound dose 19 mM + BMP-2 1.5 ug.

With `COc1cc2nccc(Oc3ccc(Br)c(C)c3)c2cc1OC` [#SRJ-G8, 4-(4-bromo-3-methylphenoxy)-6,7-dimethoxyquinoline], the ALP activity result in the experiment with Mouse C2C12 cells is given as “improving ALP activity”. The “Average (Xray score)” value is 3.5 with Harlan athymic rats (setting [1]); 3.75 with Harlan athymic rats (setting [2]); 3 in the experiment on Harlan athymic rats (setting [3]); 4 in the experiment on Harlan athymic rats (setting [4]); 1.25 in the experiment with Harlan athymic rats (setting [5]); 1.75 in the experiment with Harlan athymic rats (setting [6]). In the experiment with Harlan athymic rats (setting [7]), the “Average (Xray score)” value turned out to be 0.75. Further, the “Results (bone made, n of 4)” value is “Bone made (4 of 4)” with Harlan athymic rats (setting [1]); “Bone made (4 of 4)” with Harlan athymic rats (setting [2]); “Bone made (3 of 4)” in the experiment on Harlan athymic rats (setting [3]); “Bone made (4 of 4)” in the experiment on Harlan athymic rats (setting [4]); “Bone made (1 of 4)” in the experiment with Harlan athymic rats (setting [5]); “Bone made (2 of 4)” in the experiment with Harlan athymic rats (setting [6]). Besides, the “Results (bone made, n of 4)” value in the experiment with Harlan athymic rats (setting [7]) is recorded as “Bone made (1 of 4)”.

Take `COc1cc(OC)c(C=C2C(=O)Nc3cc(Cl)ccc32)c(OC)c1` [#SRJ-R13, 6-chloro-3-(2,4,6-trimethoxybenzylidene)indolin-2-one]: the ALP activity result in the experiment with Mouse C2C12 cells is reported as “improving ALP activity”. For the same compound, the figures for the “Average (Xray score)” value with Harlan athymic rats (setting [1]) and with Harlan athymic rats (setting [2]) were 1.75 and 2.25, respectively. In addition, the “Results (bone made, n of 4)” value is listed as “Bone made (3 of 4)” in the experiment on Harlan athymic rats (setting [1]); “Bone made (4 of 4)” in the experiment with Harlan athymic rats (setting [2]); “No bone (0 of 4)” with Harlan athymic rats (setting [3]); “No bone (0 of 4)” in the experiment with Harlan athymic rats (setting [4]); “No bone (0 of 4)” with Harlan athymic rats (setting [5]); “No bone (0 of 4)” with Harlan athymic rats (setting [6]). In addition, the “Results (bone made, n of 4)” value in the experiment with Harlan athymic rats (setting [7]) was “No bone (0 of 4)”.

With `COc1cc(Nc2nccc(Nc3ccc(F)cc3)n2)cc(OC)c1` [P5, N^2-(3,5-dimethoxyphenyl)-N^4-(4-fluorophenyl)pyrimidine-2,4-diamine], the ALP activity entry in the experiment with Mouse C2C12 cells was “improving ALP activity”.

The values are drawn from US12377194B2, “JAB1 inhibitory compositions for ossification and methods related thereto” (Emory University, priority 2011, dated 2025).
